Molecules are shown by their SMILES.

Assay [1] relates to immobilized PPARγ receptor. In words: Surface Plasmon Resonance sensor (BIAcore) binding test. The settings on record: BIAcore sensorgram, Fig. 4. The source says:
Each group consists of 10 animals.
A Surface Plasmon Resonance sensor (BIAcore column) was used to examine whether or not compounds of the present invention bind immobilized PPARγ receptor.
On the technique in general: Surface plasmon resonance follows binding to a sensor surface in real time, without labels.

Another assay has as its system PPARγ. Put plainly: transfer (reporter) gene activity assay in transfected COS-1 cells, PPARγ. The settings on record: luciferase reporter, 20 hours. The assay is classed as cell-based. The protocol: Transfection was performed by a standard procedure using a LipofectAMINE reagent from Life Technologies. A 35 mm Petri dish containing 1 x 10^5 cells dispersed in 2 ml of Dulbecco's minimum medium (DMEM) containing 10% fetal bovine serum was incubated in a CO2 incubator for 17 hours. Then, the medium was removed and cells adhered to the Petri dish were washed with phosphate buffered physiological saline (PBS), after which transfection was performed using a LipofectAMINE reagent. That is, […] of a minimum serum medium OptiMEM (Life Technologies) containing […] of a plasmid bearing the luciferase gene whose expression is controlled by PPAR-responsive elements, […] of a PPAR expression plasmid and 2 mg of a plasmid bearing the β-galactosidase gene for monitoring transfection efficiency was preliminarily mixed with […] of OptiMEM containing 50 ml of LipofectAMINE dissolved therein, and the mixed solution was maintained at room temperature for 15 minutes. A Petri dish containing a mixture of 100 ml of this mixed solution and 400 ml of OptiMEM was incubated in a CO2 incubator at 37°C for 3 hours. The transfection medium was aspirated off from the Petri dish, which was supplied with DMEM containing 10% serum treated with activated carbon and a test compound and incubated at 37°C for 20 hours. […] The medium also contains a solvent for test compounds dimethyl sulfoxide (final concentration 0.1%).
After the medium in the Petri dish was aspirated off, […] of a lysing solution for cultured cells (25 mM Tris phosphate buffer (pH 7.8), 2 mM 1,2-diaminocyclo-hexane-N, N,N',N'-tetraacetate, 10% glycerol, 1% Triton X-100) was added and cells were scraped with rubber policeman. Cells were completely disrupted by freezing and thawing and then centrifuged at 4°C (15,000 rpm, 2 min), and the supernatants were used as test samples. […] The β-galactosidase for monitoring transfection efficiency was measured for fluorescence in a luminometer using Luminescent β-galactosidase detection kit II (Clontech). […]
For orientation: A reporter such as luciferase makes a cellular process visible.

Another assay relates to PPARα. Put plainly: transfer (reporter) gene activity assay in transfected COS-1 cells, PPARα. The format is cell-based. The settings on record: luciferase reporter, 20 hours. How it is done: Transfection was performed by a standard procedure using a LipofectAMINE reagent from Life Technologies. A 35 mm Petri dish containing 1 x 10^5 cells dispersed in 2 ml of Dulbecco's minimum medium (DMEM) containing 10% fetal bovine serum was incubated in a CO2 incubator for 17 hours. Then, the medium was removed and cells adhered to the Petri dish were washed with phosphate buffered physiological saline (PBS), after which transfection was performed using a LipofectAMINE reagent. […]
After the medium in the Petri dish was aspirated off, […] of a lysing solution for cultured cells (25 mM Tris phosphate buffer (pH 7.8), 2 mM 1,2-diaminocyclo-hexane-N, N,N',N'-tetraacetate, 10% glycerol, 1% Triton X-100) was added and cells were scraped with rubber policeman. […] The β-galactosidase for monitoring transfection efficiency was measured for fluorescence in a luminometer using Luminescent β-galactosidase detection kit II (Clontech). […]

Regarding `COc1c(C=O)c(C)c(Cl)c(OCC(=O)O)c1C/C=C(C)/C=C/C1(C)C(C)CCC(=O)C1C` (stereo not drawn) [Compound 27, 4-O-Carboxymethyl-2-O-methylascochlorin], the “binding to immobilized PPARγ receptor (SPR signal)” value in assay [1] was “clearly generates a signal”. Moreover, in the assay on PPARγ, the “Activation of receptors PPARγ” value was “++ (Activation peak appears at 10^-5-10^-4M.)”.

As to `C/C(=C\Cc1c(O)c(Cl)c(C)c(C=O)c1O)CC/C=C(\C)C1=CC(=O)C(C)(C)O1` [Dehydroascofuranone], the “Activation of receptors PPARα” value with PPARα is listed as “++ (Activation peak appears at 10^-5-10^-4M.)”.

The record behind these values is EP1176134A1, “LIGANDS OF NUCLEAR RECEPTORS PPAR'S” (Nuclear Receptor Research Limited, priority 1999, dated 2000).
